Test results as given in BigSolDB 2.1.

SMILES: Cc1c(O)c(=O)ccn1C
- solubility (mole fraction) (in acetonitrile, 283.1 K): 0.000187
- solubility (mole fraction) (in acetonitrile, 293.1 K): 0.000324
- solubility (mole fraction) (in acetonitrile, 303.1 K): 0.000599
- solubility (mole fraction) (in acetonitrile, 313.1 K): 0.00091
- solubility (mole fraction) (in acetonitrile, 323.1 K): 0.00137
- solubility (mole fraction) (in ethyl acetate, 283.1 K): 6.77e-05
- solubility (mole fraction) (in ethyl acetate, 293.1 K): 0.000104
- solubility (mole fraction) (in ethyl acetate, 303.1 K): 0.000155
- solubility (mole fraction) (in ethyl acetate, 313.1 K): 0.000218
- solubility (mole fraction) (in ethyl acetate, 323.1 K): 0.000318
- solubility (mole fraction) (in methanol, 283.1 K): 0.00194
- solubility (mole fraction) (in methanol, 293.1 K): 0.00348
- solubility (mole fraction) (in methanol, 303.1 K): 0.0052
- solubility (mole fraction) (in methanol, 313.1 K): 0.00775
- solubility (mole fraction) (in methanol, 323.1 K): 0.0114
- solubility (mole fraction) (in water, 283.1 K): 0.00184
- solubility (mole fraction) (in water, 293.1 K): 0.00227
- solubility (mole fraction) (in water, 303.1 K): 0.0031
- solubility (mole fraction) (in water, 313.1 K): 0.00414
- solubility (mole fraction) (in water, 323.1 K): 0.00532

SMILES: C=CC1=C(C(=O)O)N2C(=O)[C@@H](NC(=O)/C(=N\OCC(=O)O)c3csc(N)n3)[C@H]2SC1.O.O.O
- solubility (mole fraction) (in acetonitrile, 283.1 K): 8.28e-05
- solubility (mole fraction) (in acetonitrile, 293.1 K): 0.000105
- solubility (mole fraction) (in acetonitrile, 303.1 K): 0.000127
- solubility (mole fraction) (in acetonitrile, 313.1 K): 0.000183
- solubility (mole fraction) (in acetonitrile, 323.1 K): 0.000292
- solubility (mole fraction) (in ethyl acetate, 283.1 K): 5.08e-05
- solubility (mole fraction) (in ethyl acetate, 293.1 K): 7.12e-05
- solubility (mole fraction) (in ethyl acetate, 303.1 K): 0.000129
- solubility (mole fraction) (in ethyl acetate, 313.1 K): 0.000175
- solubility (mole fraction) (in ethyl acetate, 323.1 K): 0.00025
- solubility (mole fraction) (in methanol, 283.1 K): 0.00635
- solubility (mole fraction) (in methanol, 293.1 K): 0.00892
- solubility (mole fraction) (in methanol, 303.1 K): 0.0132
- solubility (mole fraction) (in methanol, 313.1 K): 0.0209
- solubility (mole fraction) (in methanol, 323.1 K): 0.0309
- solubility (mole fraction) (in water, 283.1 K): 9.7e-06
- solubility (mole fraction) (in water, 293.1 K): 1.45e-05
- solubility (mole fraction) (in water, 303.1 K): 2.02e-05
- solubility (mole fraction) (in water, 313.1 K): 3.18e-05
- solubility (mole fraction) (in water, 323.1 K): 5.09e-05
